Broadly, the IC50 is the concentration that inhibits the measured activity by half. Higher therefore signals a need for much substance.

For data set [1], the target named is T1, AmpC SBL from Escherichia coli (AmpCEC) (Escherichia coli, UniProt P00811).
T1 construct: made in house
The data set is described as follows: Steady-state competitive inhibition kinetics of AmpCEC with fluorescent substrate FC-5 (kobs, Kiapp, k2/K). The format is biochemical. The protocol:
(§1) Assays were performed and analyzed as described previously ([34]). In summary, assays in the presence of inhibitors were carried out under steady-state conditions monitoring hydrolysis of the fluorescent substrate FC-5 ([33]) in 100 mM phosphate buffer, pH 7.5, supplemented with 0.01% (vol/vol) Triton X-100. Fluorescence was measured using a PHERAstar (BMG Labtech) plate reader, recording emission spectra at an excitation wavelength of 380 nm and emission wavelength of 460 nm. […] The pseudo first-order rate constant, kobs, and the apparent inhibition constant, Kiapp, were obtained by assaying 100 nM AmpCEC with 5 μM FC-5 in the presence of various concentrations of the inhibitor. Reactions were initiated by addition of AmpCEC and immediately monitored continuously over 30 s. […] The second-order rate constant (k2/K) was obtained from linear regression of measured kobs values against inhibitor concentrations (see Fig. S3b in the supplemental material) and corrected by the Michaelis constant (Km) and concentration of the substrate. Kiapps ([50]) were determined by linear regression of the reciprocals of the initial rates against inhibitor concentration (Fig. S3a) and corrected using the experimentally determined substrate Km and substrate concentration. Inhibitor off rates (koff) were measured using the jump-dilution method ([51]); thus, AmpCEC (1 μM) was incubated with the respective inhibitor (10 μM) for 30 min at room temperature and diluted 100,000-fold in the assay buffer to a final enzyme concentration of 10 pM and then immediately assayed using 25 μM (final concentration) FC-5. Off rates were determined from exponential regression in relation to turnover of no enzyme and no inhibitor controls (Fig. S3c). Half-lives of the enzyme-inhibitor complexes were directly calculated from the measured koff values.
Figure S1: Progression curves used in kobs determinations. AmpCEC (100 nM) was assayed using FC-5 (5 μM)
Reactions were initiated by addition of
AmpCEC and immediately monitored, as described in Materials and Methods. Buffer: 50 mM phosphate buffer, pH
7.5 and 0.01% (v/v) Triton X-100. Curves were fitted to Equation 5.
(A) Determination of Kiapp values
for AmpCEC inhibition by DBOs. […]

Data set [2] relates to DH5α Escherichia coli (wt). The data set is described as follows: MIC by broth microdilution, wild-type strain. The settings on record: compound alone, read-out: Minimum Inhibitory Concentration. The format is cell-based. The procedure:
(§2) MICs were determined by broth microdilutions in triplicate and interpreted using published guidelines described by the CLSI. […] DBOs were also tested as the sole administered antimicrobial (0.25 to 256 μg ml^−1) against both strains (Table S5).

The subject of data set [3] is DH5α E. coli containing the pAD7-AmpCEC plasmid. The data set is described as follows: MIC by broth microdilution, AmpCEC-producing strain. The format is cell-based, Escherichia coli. The note with it: for MIC: Escherichia coli, read-out: Minimum Inhibitory Concentration, compound alone, DH5α pAD7 AmpCEC. The procedure: as §2
Another data set deals with E. coli ATCC 25922. More on the design: method as in PMID 30861342. The settings on record: E. coli ATCC 25922, compound alone; cited from earlier work.
Another data set concerns PDC-1. The arrangement: method as in earlier work. The settings on record: ref [2]; cited from earlier work.
The next data set deals with PDC-3. The arrangement: method as in earlier work. The settings on record: ref [2]; cited from earlier work.
For a further data set, the target named is ADC-7. The arrangement: method as in earlier work. The settings on record: ref [2], cited from earlier work; for Ki: read-out: Kiapp.
The target in data set [4] is T1, AmpC SBL from Escherichia coli (AmpCEC). The data set is described as follows: Jump-dilution off-rate of AmpCEC-DBO carbamoyl complexes (FC-5). It is filed as biochemical. The note with it: jump dilution 100,000-fold; 1 μM AmpCEC preincubated with 10 μM DBO 30 min at room temperature; 25 μM FC-5. The procedure: as §1, with “Inhibitor off rates (koff) were measured using the jump-dilution method ([51]); thus, AmpCEC (1 μM) was incubated with the respective inhibitor (10 μM) for 30 min at room temperature and diluted 100,000-fold in the assay buffer to a final enzyme concentration of 10 pM and then immediately assayed using 25 μM (final concentration) FC-5.” left out, “Half-lives of the enzyme-inhibitor complexes were directly calculated from the measured koff values.” left out

For data set [5] the target is unchanged. The data set is described as follows: AmpCEC inhibition pIC50 with varied preincubation time and pH (FC-5). It is filed as biochemical. The protocol:
as §1
pre-incubated with the inhibitors for the indicated times at room temperature and assayed using 5 μM FC-5 [1].
(1 picture or pasted object on this page, not shown here)
AmpCEC (500 pM) was preincubated
with the inhibitors for the indicated times at room temperature, then assayed using 5 μM FC-5 [1]. Buffer: 50 mM
regression (Figure S2), as described in the Materials and Methods.

The target is the same in data set [6]. Described as above. The format is biochemical. This is another data set of the same source.
Where [7] appears, read: [DBO] 5.00 µM, 100 nM AmpCEC, 5 μM FC-5.
Setting [8] is: pIC50, 0 min preincubation, pH 7.5, 500 pM AmpCEC, 5 μM FC-5.
Where [9] appears, read: pIC50, 10 min preincubation, pH 7.5.
[10] abbreviates: pIC50, 30 min preincubation, pH 7.5.
[11] abbreviates: pIC50, 60 min preincubation, pH 7.5.
[12] abbreviates: pIC50, 360 min preincubation, pH 7.5, 500 pM AmpCEC, 5 μM FC-5.
[13] abbreviates: pIC50, 0 min preincubation, pH 7.0.
Setting [14] is: pIC50, 0 min preincubation, pH 8.0.
[15] abbreviates: pIC50, 10 min preincubation, pH 7.0.
The mark [16] stands for this setting: pIC50, 10 min preincubation, pH 8.0.
[17] abbreviates: pIC50, 30 min preincubation, pH 7.0.
Where [18] appears, read: pIC50, 60 min preincubation, pH 7.0.
Setting [19] is: pIC50, 60 min preincubation, pH 8.0.
Where [20] appears, read: pIC50, 360 min preincubation, pH 7.0.
Setting [21] is: pIC50, 360 min preincubation, pH 8.0.

Converted amounts (≈) assume the structure as drawn. “And” between values parts separate entries of the source, which are not always exact repeats. Equal values may be shown once.

T1 sequence (P00811 20-377): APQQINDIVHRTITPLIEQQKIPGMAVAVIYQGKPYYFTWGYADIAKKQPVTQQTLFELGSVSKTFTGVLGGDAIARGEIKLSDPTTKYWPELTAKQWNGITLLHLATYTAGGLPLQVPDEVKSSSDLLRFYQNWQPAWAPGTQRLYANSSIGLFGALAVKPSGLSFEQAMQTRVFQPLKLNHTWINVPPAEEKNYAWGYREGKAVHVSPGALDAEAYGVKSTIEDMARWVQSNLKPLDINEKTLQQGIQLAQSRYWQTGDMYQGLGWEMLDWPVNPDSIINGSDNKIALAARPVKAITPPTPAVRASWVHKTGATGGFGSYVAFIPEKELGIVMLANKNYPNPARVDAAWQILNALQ

Take `NC(=O)[C@@H]1CC[C@@H]2CN1C(=O)N2OS(=O)(=O)O` [AVI, avibactam]: the kobs in [1] ([DBO] 0.04 µM) was 0.135 ± 0.002; in data set [1] ([DBO] 0.16 µM), 0.134 ± 0.001; in data set [1] ([DBO] 0.31 µM), 0.135 ± 0.006; in [1] ([DBO] 0.63 µM), 0.144 ± 0.002; in data set [1] ([DBO] 1.25 µM), 0.168 ± 0.008; in data set [1] (setting [7]), 0.305 ± 0.004. Further, the MIC (in [2]; in data set [3]; in the data set on E. coli ATCC 25922) was 16 µg/mL (≈ 60.3 µM) each time. The k2/K in the data set on PDC-1 is listed as 2900 (M-1s-1) x 10 3; with PDC-3, 29 (M-1s-1) x 10 3; with ADC-7, 3.9 ± 0.4 (M-1s-1) x 10 3. The t1/2 in the data set on PDC-1 is reported as 6 min; in the data set on PDC-3, 14 min; in the data set on ADC-7, 33 ± 5 min. Moreover, at ADC-7, the Ki was 19 ± 2 µM.

`CC(C)(O/N=C(\C(=O)N[C@@H]1C(=O)N2C(C(=O)[O-])=C(C[n+]3ccccc3)CS[C@H]12)c1csc(N)n1)C(=O)O` [CAZ, ceftazidime]: the MIC is 1 µg/mL (≈ 1.83 µM) in data set [2] and 256 µg/mL (≈ 468 µM) in data set [3].

In the case of `NCCONC(=O)[C@@H]1CC[C@@H]2CN1C(=O)N2OS(=O)(=O)O` [NAC, nacubactam], the Ki in data set [1] was 5 ± 0.1 µM. The kobs in data set [1] ([DBO] 0.04 µM) stood at 0.142 ± 0.003; in data set [1] ([DBO] 0.16 µM), 0.142 ± 0.003; in [1] ([DBO] 0.31 µM), 0.153 ± 0.005; in [1] ([DBO] 0.63 µM) it was 0.153 ± 0.002; in [1] ([DBO] 1.25 µM), 0.185 ± 0.003; in [1] (setting [7]) it was 0.393 ± 0.008. Moreover, the kinact/KI in data set [1] (pH 7.5, read-out: k2/K (carbamoylation rate)) was determined as 52000 ± 2000 M⁻¹ s⁻¹. The “koff (decarbamoylation rate)” value in data set [4] is 0.049 s^−1, ×10^−3 and 0.049 ± 0.01 s^−1, ×10^−3. Moreover, the IC50 was 178 nM in [5] (setting [8]); 66.1 nM in data set [5] (setting [9]); 34.7 nM in data set [5] (setting [10]); 13.8 nM in data set [5] (setting [11]); 2.95 nM in data set [5] (setting [12]); 200 nM in data set [6] (setting [13]). The IC50 in data set [6] (setting [14]) was 141 nM; in data set [6] (setting [15]) it was 91.2 nM; in data set [6] (setting [16]) it was 58.9 nM; in [6] (setting [17]) it was 31.6 nM; in data set [6] (setting [18]), 16.2 nM; in data set [6] (setting [19]), 15.1 nM. Also, the IC50 is 6.46 nM in data set [6] (setting [20]) and 5.13 nM in data set [6] (setting [21]). Also, the MIC in data set [2] was 2 µg/mL (≈ 6.17 µM); in data set [3], 4 µg/mL (≈ 12.3 µM); in the data set on E. coli ATCC 25922, 2 µg/mL (≈ 6.17 µM). Moreover, the “Minimum Inhibitory Concentration” value in [3] (compound alone, DH5α pAD7 AmpCEC) was 2 µg/mL.

For the compound `O=C(NC1CCNCC1)[C@@H]1CC[C@@H]2CN1C(=O)N2OS(=O)(=O)O` [REL, relebactam], the Ki in data set [1] worked out at 7.1 ± 0.3 µM. The kobs in data set [1] ([DBO] 0.04 µM) stood at 0.134 ± 0.007; in data set [1] ([DBO] 0.16 µM) it was 0.138 ± 0.003; in data set [1] ([DBO] 0.31 µM), 0.136 ± 0.002; in [1] ([DBO] 0.63 µM), 0.143 ± 0.002; in [1] ([DBO] 1.25 µM) it was 0.167 ± 0.005; in [1] (setting [7]), 0.314 ± 0.012. Further, the IC50 in data set [5] (setting [8]) is 245 nM; in [5] (setting [9]), 107 nM; in data set [5] (setting [10]) it was 34.7 nM; in data set [5] (setting [11]) it was 20.4 nM; in data set [5] (setting [12]), 3.89 nM; in data set [6] (setting [13]), 166 nM. Moreover, the IC50 is 158 nM in data set [6] (setting [14]); 115 nM in [6] (setting [15]); 63.1 nM in [6] (setting [16]); 49 nM in [6] (setting [17]); 17.4 nM in data set [6] (setting [18]); 13.2 nM in data set [6] (setting [19]). The IC50 was 4.17 nM in [6] (setting [20]) and 10.5 nM in [6] (setting [21]). In addition, the MIC in [2] was 128 µg/mL (≈ 367 µM); in [3], 128 µg/mL (≈ 367 µM); with E. coli ATCC 25922 it was greater than 64 µg/mL. Also, the k2/K is 46 ± 5 (M-1s-1) x 10 3 in the data set on PDC-3 and 7.8 ± 0.8 (M-1s-1) x 10 3 in the data set with ADC-7. The t1/2 with PDC-3 is listed as 13 ± 4 min; in the data set with ADC-7, 39 ± 4 min.

For `O=C(NNC(=O)[C@@H]1CC[C@@H]2CN1C(=O)N2OS(=O)(=O)O)[C@@H]1CCCNC1` [ZID, zidebactam], the figures for the Ki (in data set [1]; at ADC-7) were 0.69 ± 0.04 µM and 2.3 ± 0.3 µM, respectively. The kobs in data set [1] ([DBO] 0.04 µM) was determined as 0.150 ± 0.002; in [1] ([DBO] 0.16 µM), 0.183 ± 0.002; in data set [1] ([DBO] 0.31 µM), 0.246 ± 0.002; in data set [1] ([DBO] 0.63 µM) it was 0.357 ± 0.003. For the same compound, the IC50 in [5] (setting [8]) is 25.1 nM; in data set [5] (setting [9]) it was 11 nM; in [5] (setting [10]) it was 7.59 nM; in data set [5] (setting [11]), 4.68 nM; in [5] (setting [12]), 3.47 nM; in data set [6] (setting [13]) it was 34.7 nM. Besides, the IC50 was 17 nM in [6] (setting [14]); 16.6 nM in data set [6] (setting [15]); 8.13 nM in [6] (setting [16]); 8.71 nM in data set [6] (setting [17]); 5.75 nM in data set [6] (setting [18]); 3.89 nM in data set [6] (setting [19]). In addition, the IC50 in [6] (setting [20]) is 5.25 nM; in data set [6] (setting [21]), 4.37 nM. Moreover, the results for the MIC (in data set [2]; in data set [3]; in the data set on E. coli ATCC 25922) were no more than 0.25 µg/mL, no more than 0.25 µg/mL and 0.125 µg/mL (≈ 0.319 µM), respectively. The k2/K with PDC-3 is recorded as 480 ± 70 (M-1s-1) x 10 3; in the data set on ADC-7, 35 ± 4 (M-1s-1) x 10 3. Moreover, the t1/2 in the data set with PDC-3 is listed as 3 ± 0.4 min; in the data set on ADC-7 it was 11 ± 1 min.
